Test results published in patent US20110195929A1, “COMPOUNDS FOR THE TREATMENT OF FLAVIVIRAL INFECTIONS” (SUMMIT CORPORATION PLC, priority 2008, published 2011).

Assays:
β-D-galactosidase = assay: Glycosidase inhibition: β-D-galactosidase; format: biochemical, Bovine liver; conditions: 1 mg/ml; pH 7.3, 20° C
Experimental: (§1) Inhibition of the N-linked glycan trimming enzymes alpha-Glucosidases I and II or alpha-Mannosidases I and II are thought to be related to the anti-viral activity of castanospermine (Compound 104) and 1-deoxynojirimycin (Compound 193). […] All enzymes were purchased from Sigma, as were the appropriate p-nitrophenyl substrates. Assays were carried out in microtitre plates. Enzymes were assayed in 0.1M citric acid/0.2M di-sodium hydrogen phosphate (McIlvaine) buffers at the optimum pH for the enzyme. All assays were carried out at 20° C. For screening assays the incubation assay consisted of 10 μl of enzyme solution, 10 μl of inhibitor solution (made up in water at 5 mM) and 50 μl of the appropriate 5 mM p-nitrophenyl substrate (3.57 mM final conc.) made up in McIlvaine buffer at the optimum pH for the enzyme.
(§2) The reactions were stopped with 0.4M glycine (pH 10.4) during the exponential phase of the reaction, which was determined at the beginning of the assay using blanks with water, which were incubated for a range of time periods to measure the reaction rate using 5 mM substrate solution. Endpoint absorbances were read at 405 nm with a Bio-rad microtitre plate reader (Benchmark). Water was substituted for the inhibitors in the blanks.

α-D-galactosidase = target: T1, α-D-galactosidase (Coffea arabica, UniProt Q42656); assay: Glycosidase inhibition: α-D-galactosidase; format: biochemical, Green coffee beans (Coffea sp.); conditions: 1 mg/ml; pH 6.5, 20° C
T1 construct: purchased Sigma
Experimental: as §1, §2

α-L-fucosidase = target: T2, α-L-fucosidase (Bos taurus, UniProt Q2KIM0); assay: Glycosidase inhibition: α-L-fucosidase; format: biochemical, Bovine kidney; conditions: 1 mg/ml; pH 5.5, 20° C
T2 construct: purchased Sigma; host or cells: bovine kidney
T2 sequence (Q2KIM0 23-468): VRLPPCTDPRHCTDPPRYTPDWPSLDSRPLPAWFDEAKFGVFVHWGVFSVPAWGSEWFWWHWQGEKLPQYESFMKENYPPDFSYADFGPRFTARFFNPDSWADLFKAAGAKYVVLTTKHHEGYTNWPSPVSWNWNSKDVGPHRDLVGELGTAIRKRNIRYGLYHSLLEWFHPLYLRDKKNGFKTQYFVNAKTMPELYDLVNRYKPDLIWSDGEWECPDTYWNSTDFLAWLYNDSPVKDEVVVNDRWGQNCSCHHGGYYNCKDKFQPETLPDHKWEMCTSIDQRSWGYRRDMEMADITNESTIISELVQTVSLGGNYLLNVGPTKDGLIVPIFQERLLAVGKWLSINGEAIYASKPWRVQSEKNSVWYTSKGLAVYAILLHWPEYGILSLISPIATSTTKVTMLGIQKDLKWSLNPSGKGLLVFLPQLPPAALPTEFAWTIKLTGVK
Experimental: All enzymes were purchased from Sigma, as were the appropriate p-nitrophenyl substrates. Assays were carried out in microtitre plates. Enzymes were assayed in 0.1M citric acid/0.2M di-sodium hydrogen phosphate (McIlvaine) buffers at the optimum pH for the enzyme. All assays were carried out at 20° C. For screening assays the incubation assay consisted of 10 μl of enzyme solution, 10 μl of inhibitor solution (made up in water at 5 mM) and 50 μl of the appropriate 5 mM p-nitrophenyl substrate (3.57 mM final conc.) made up in McIlvaine buffer at the optimum pH for the enzyme.
as §2

α-D-glucosidase [1] = assay: Glycosidase inhibition: α-D-glucosidase (Bacillus); format: biochemical, Bacillus stearothermophilus; conditions: 1 mg/ml; pH 6.0, 20° C
Experimental: as §1, §2

[2] = tested on: N-acetyl-β-D-glucosaminidase; assay: Glycosidase inhibition: N-acetyl-β-D-glucosaminidase; format: biochemical, Bovine kidney; conditions: 1 mg/ml; pH 4.25, 20° C
Experimental: as §1, §2

α-D-glucosidase [3] = target: T3, α-D-glucosidase (Oryza sativa subsp. japonica, UniProt Q653V7); assay: Glycosidase inhibition: α-D-glucosidase (rice); format: biochemical, rice (Oryza sativa); conditions: 1 mg/ml; pH 6.0, 20° C; read-out: % inhibition α-gluc (rice)
T3 construct: purchased Sigma
Experimental: as §1, §2

Naringinase = assay: Glycosidase inhibition: Naringinase; format: biochemical, Penecillium decumbens; conditions: 1 mg/ml; pH 4.0, 20° C
Experimental: as §1, §2

β-D-glucosidase = assay: Glycosidase inhibition: β-D-glucosidase; format: biochemical, Almonds (Prunus sp.); conditions: 1 mg/ml; pH 5.0, 20° C
Experimental: as §1, §2

α-D-mannosidase = target: T4, α-D-mannosidase (Canavalia ensiformis, UniProt C0HJB3); assay: Glycosidase inhibition: α-D-mannosidase; format: biochemical, Jack beans (Canavalia ensiformis); conditions: 1 mg/ml; pH 4.5, 20° C
T4 construct: purchased Sigma
T4 sequence (C0HJB3 1-981): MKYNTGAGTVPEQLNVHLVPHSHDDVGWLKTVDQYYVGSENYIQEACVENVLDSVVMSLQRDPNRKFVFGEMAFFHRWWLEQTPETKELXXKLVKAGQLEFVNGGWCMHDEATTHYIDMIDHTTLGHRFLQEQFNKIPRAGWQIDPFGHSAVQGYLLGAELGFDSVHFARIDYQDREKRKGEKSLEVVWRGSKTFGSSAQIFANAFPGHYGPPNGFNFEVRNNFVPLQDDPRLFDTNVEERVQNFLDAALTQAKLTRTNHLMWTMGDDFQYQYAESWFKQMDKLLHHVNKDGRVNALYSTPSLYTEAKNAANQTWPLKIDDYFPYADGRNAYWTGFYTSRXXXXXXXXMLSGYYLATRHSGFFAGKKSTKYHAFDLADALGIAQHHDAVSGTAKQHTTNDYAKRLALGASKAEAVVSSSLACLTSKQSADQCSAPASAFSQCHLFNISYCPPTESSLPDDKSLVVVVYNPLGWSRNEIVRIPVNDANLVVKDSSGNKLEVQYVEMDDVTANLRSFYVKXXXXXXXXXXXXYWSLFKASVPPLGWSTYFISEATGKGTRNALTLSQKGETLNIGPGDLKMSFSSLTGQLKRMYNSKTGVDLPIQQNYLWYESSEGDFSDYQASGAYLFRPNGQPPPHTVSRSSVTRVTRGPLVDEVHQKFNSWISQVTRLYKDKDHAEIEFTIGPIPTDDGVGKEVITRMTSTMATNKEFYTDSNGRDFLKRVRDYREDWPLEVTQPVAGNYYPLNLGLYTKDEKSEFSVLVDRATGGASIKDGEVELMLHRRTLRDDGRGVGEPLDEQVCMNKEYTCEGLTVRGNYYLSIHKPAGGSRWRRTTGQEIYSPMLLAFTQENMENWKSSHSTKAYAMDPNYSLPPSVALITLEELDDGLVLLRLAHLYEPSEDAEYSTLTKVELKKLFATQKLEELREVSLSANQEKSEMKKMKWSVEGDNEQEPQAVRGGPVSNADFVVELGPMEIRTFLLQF
Experimental: as §1, §2

HCV = assay: Cell-based HCV infection NS3 protease FRET assay in DMSO-Huh7 cells; set-up: species or system hepatitis C virus (HCV); conditions: DMSO-Huh7 cells infected with HCV at 0.05 ffu/cell; HCV NS3 protein levels by FRET, day 6 p.i.

T1 sequence (Q42656 16-378): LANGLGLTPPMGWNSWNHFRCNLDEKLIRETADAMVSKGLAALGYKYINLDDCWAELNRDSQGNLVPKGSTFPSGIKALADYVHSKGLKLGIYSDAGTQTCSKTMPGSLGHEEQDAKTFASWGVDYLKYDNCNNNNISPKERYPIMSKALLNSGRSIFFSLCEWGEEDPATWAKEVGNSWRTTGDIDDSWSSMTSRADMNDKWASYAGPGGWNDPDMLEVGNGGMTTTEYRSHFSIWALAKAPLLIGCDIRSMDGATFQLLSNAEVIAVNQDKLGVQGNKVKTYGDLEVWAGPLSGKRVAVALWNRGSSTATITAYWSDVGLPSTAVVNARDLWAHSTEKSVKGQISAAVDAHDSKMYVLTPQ
T3 sequence (Q653V7 34-885): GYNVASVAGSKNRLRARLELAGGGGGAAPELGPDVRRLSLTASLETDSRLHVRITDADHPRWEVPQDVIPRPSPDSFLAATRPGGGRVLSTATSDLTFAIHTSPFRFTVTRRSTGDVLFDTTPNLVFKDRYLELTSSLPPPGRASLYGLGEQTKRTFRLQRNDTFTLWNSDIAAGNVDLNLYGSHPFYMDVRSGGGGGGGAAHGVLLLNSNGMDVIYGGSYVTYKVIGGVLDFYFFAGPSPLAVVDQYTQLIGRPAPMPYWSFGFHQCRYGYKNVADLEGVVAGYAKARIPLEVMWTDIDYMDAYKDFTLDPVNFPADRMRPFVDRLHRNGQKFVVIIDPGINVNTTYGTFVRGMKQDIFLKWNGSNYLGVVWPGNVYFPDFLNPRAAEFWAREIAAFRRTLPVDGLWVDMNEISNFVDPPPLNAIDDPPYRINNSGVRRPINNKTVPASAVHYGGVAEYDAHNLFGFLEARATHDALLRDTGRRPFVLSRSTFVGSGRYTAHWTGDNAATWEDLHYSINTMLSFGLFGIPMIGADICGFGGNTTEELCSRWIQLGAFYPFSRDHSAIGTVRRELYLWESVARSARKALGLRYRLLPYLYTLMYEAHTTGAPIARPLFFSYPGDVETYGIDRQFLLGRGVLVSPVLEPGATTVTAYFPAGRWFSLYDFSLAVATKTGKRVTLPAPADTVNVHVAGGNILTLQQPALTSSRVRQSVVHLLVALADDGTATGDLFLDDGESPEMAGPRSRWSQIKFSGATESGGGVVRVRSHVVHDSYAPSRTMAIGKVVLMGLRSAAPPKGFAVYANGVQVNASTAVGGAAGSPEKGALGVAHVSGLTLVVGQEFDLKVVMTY

Compound	% inhibition β-galactosidase (β-D-galactosidase)	inhibition at 1000 µg/mL (α-D-galactosidase)	inhibition at 1000 µg/mL (α-L-fucosidase)	% inhibition α-gluc (Bacillus) (α-D-glucosidase [1])	% inhibition N-acetyl-β-gluc [2]	inhibition at 1000 µg/mL (α-D-glucosidase [3])	% inhibition Naringinase (Naringinase)	% inhibition β-glucosidase (β-D-glucosidase)	inhibition at 1000 µg/mL (α-D-mannosidase)	Ave % inhibition (HCV)
OC[C@@H]1NC[C@H](O)[C@@H]1O [Compound 167, (2S,3R,4S)-2-(hydroxymethyl)pyrrolidine-3,4-diol]	0%	32%	28%	35%	19%	58%	50%	22%	0%	
CC[C@@H](O)[C@H]1N[C@H](CO)[C@@H](O)[C@@H]1O [Compound 62, (2R,3R,4R,5R)-2-(hydroxymethyl)-5-((R)-1-hydroxypropyl)pyrrolidine-3,4-diol]	100%	0%	0%	65%	20%	32%	37%	100%	0%	+ (+: ≦19%)
O[C@H]1[C@H](O)[C@@H](O)CN2CC[C@H](O)[C@H]12 [Compound 104, Castanospermine, reference compound]	16%	0%	0%	0%	0%	90%	39%	88%	0%	
CC[C@@H]1N[C@@H](CO)[C@H](O)[C@@H](O)[C@@H]1O [Compound 23, (2S,3R,4S,5S,6S)-2-ethyl-6-(hydroxymethyl)piperidine-3,4,5-triol]	53%	0%	0%	0%	0%	66%	0%	28%	0%	+ (+: ≦19%)
CC(O)[C@H](O)[C@H]1N[C@H](CO)[C@@H](O)[C@@H]1O (stereo partly drawn) [Compound 63, (2R,3R,4R,5R)-2-((1R)-1,2-dihydroxypropyl)-5-(hydroxymethyl)pyrrolidine-3,4-diol]	93%	0%	0%	36%	0%	41%	0%	93%	0%	+ (+: ≦19%)
